The assay addresses T1, Ceramide glucosyltransferase (Homo sapiens, UniProt Q16739).
T1 sequence (Q16739 whole entry): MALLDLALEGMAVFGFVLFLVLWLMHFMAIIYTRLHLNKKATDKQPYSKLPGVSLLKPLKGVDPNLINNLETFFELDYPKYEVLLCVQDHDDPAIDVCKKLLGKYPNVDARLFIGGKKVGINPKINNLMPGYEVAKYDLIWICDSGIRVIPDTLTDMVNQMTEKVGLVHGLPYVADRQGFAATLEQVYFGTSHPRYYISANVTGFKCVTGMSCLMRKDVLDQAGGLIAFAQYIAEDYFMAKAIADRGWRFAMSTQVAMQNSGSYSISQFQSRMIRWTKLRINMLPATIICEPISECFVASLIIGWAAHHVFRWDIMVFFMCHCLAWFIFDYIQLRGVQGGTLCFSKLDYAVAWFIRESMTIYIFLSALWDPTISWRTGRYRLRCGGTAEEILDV
Description: UDP-Glo Glucosylceramide Synthase Biochemical Assay. On the procedure:
Using Promega's UDP-Glo™ Glycosyltransferase assay kit (Promega Corporation, Madison, WI, USA (Promega)), GCS activity was indirectly measured by detecting the amount of UDP produced. An aliquot of GCS enzyme (1.5 μg crude golgi preparation, total protein) and titrated test compound were aliquoted to each well and incubated for 30 minutes at room temperature. Substrate mixture was prepared by mixing C6 ceramide (Avanti Polar Lipids, Alabaster, AL USA (Avanti)) (micelles prepared at 0.6 mM in 0.6 mM DOPC) and UDP-glucose (20 μ.M; Promega), at concentrations equivalent to 2×Km, in assay buffer (25 mM HEPES (pH 7.5), 50 mM KCl, 5 mM MgCl2). An equivalent volume of substrate mixture was then added to each well. Following a 20 h incubation at room temperature to allow for GCS turnover of substrate, an equal volume of UDP detection reagent (Promega) was added to each well and incubated for an additional 75 minutes at room temperature to simultaneously convert the accumulated UDP product into ATP and generate light in a luciferase reaction.

For `CCCOc1ccccc1-c1cccc2cc(C(=O)Nc3cccnc3)oc12` [US20230391758, Compound 10], the response was half-maximal at 1.8 nM (EC50).

As a reminder, the EC50 is the midpoint of the concentration-response curve. A lower EC50 goes with greater potency.

The values above are taken from BindingDB's records for patent US20230391758 (Merck Sharp & Dohme, 2023).
